ChEMBL document CHEMBL3044552, “Synthesis and biological evaluation of 1-(3-chloro-2-oxo-4-phenylazetidin-1-yl)-3-(2-oxo-2-(10H-phenothiazin-10-yl)ethyl)urea derivatives” (Med Chem Res, 2013)
≈ marks a conversion by molar mass, not a printed value. Calls of active or inactive are those of the source. The rule behind the calls is not given here.

Key:
[1] = tested on: Mycobacterium tuberculosis; assay: Growth inhibition of Mycobacterium tuberculosis H37Rv at 1 ug/ml after 7 days by resazurin microplate assay; format: functional, organism-based
Micrococcus luteus [2] = assay: Antibacterial activity against Micrococcus luteus after 18 hr by serial dilution method; format: functional
Staphylococcus aureus [3] = assay: Antibacterial activity against Staphylococcus aureus after 24 hr by disk diffusion method; format: functional
[4] = Antioxidant activity assessed as reduction of ferric ion after 30 min by spectrophotometric analysis; format: functional
Trichophyton rubrum [5] = assay: Antifungal activity against Trichophyton rubrum after 24 hr by disk diffusion method; format: functional
Salmonella paratyphi [6] = assay: Antibacterial activity against Salmonella enterica subsp. enterica serovar Paratyphi A after 24 hr by disk diffusion method; format: functional
[7] = tested on: Radical scavenging activity; assay: Antioxidant activity assessed as DPPH radical scavenging activity after 30 min by spectrophotometric analysis; format: functional
[8] = tested on: Mycobacterium tuberculosis; assay: Growth inhibition of Mycobacterium tuberculosis H37Rv at 100 ug/ml after 7 days by resazurin microplate assay; format: functional, organism-based
Escherichia coli [9] = assay: Antibacterial activity against Escherichia coli after 18 hr by serial dilution method; format: functional
Salmonella paratyphi [10] = assay: Antibacterial activity against Salmonella enterica subsp. enterica serovar Paratyphi A after 18 hr by serial dilution method; format: functional
Candida albicans [11] = assay: Antifungal activity against Candida albicans after 18 hr by serial dilution method; format: functional
Pseudomonas aeruginosa [12] = assay: Antibacterial activity against Pseudomonas aeruginosa after 24 hr by disc diffusion method; format: functional
Monascus purpureus [13] = assay: Antifungal activity against Monascus purpureus after 24 hr by disk diffusion method; format: functional
Aspergillus niger [14] = assay: Antifungal activity against Aspergillus niger after 18 hr by serial dilution method; format: functional
[15] = tested on: Mycobacterium tuberculosis; assay: Growth inhibition of Mycobacterium tuberculosis H37Rv at 10 ug/ml after 7 days by resazurin microplate assay; format: functional, organism-based
Micrococcus luteus [16] = assay: Antibacterial activity against Micrococcus luteus after 24 hr by disk diffusion method; format: functional
Monascus purpureus [17] = assay: Antifungal activity against Monascus purpureus after 18 hr by serial dilution method; format: functional
Vibrio cholerae [18] = assay: Antibacterial activity against Vibrio cholerae after 24 hr by disk diffusion method; format: functional
[19] = tested on: Staphylococcus epidermidis; assay: Antibacterial activity against Staphylococcus albus after 24 hr by disk diffusion method; format: functional
Escherichia coli [20] = assay: Antibacterial activity against Escherichia coli after 24 hr by disc diffusion method; format: functional
Vibrio cholerae [21] = assay: Antibacterial activity against Vibrio cholerae after 18 hr by serial dilution method; format: functional
Bacillus subtilis [22] = assay: Antibacterial activity against Bacillus subtilis after 24 hr by disk diffusion method; format: functional
Pseudomonas aeruginosa [23] = assay: Antibacterial activity against Pseudomonas aeruginosa after 18 hr by serial dilution method; format: functional
Candida albicans [24] = assay: Antifungal activity against Candida albicans after 24 hr by disk diffusion method; format: functional
Trichophyton rubrum [25] = assay: Antifungal activity against Trichophyton rubrum after 18 hr by serial dilution method; format: functional
Bacillus subtilis [26] = assay: Antibacterial activity against Bacillus subtilis after 18 hr by serial dilution method; format: functional
[27] = tested on: Staphylococcus epidermidis; assay: Antibacterial activity against Staphylococcus albus after 18 hr by serial dilution method; format: functional
Aspergillus niger [28] = assay: Antifungal activity against Aspergillus niger after 24 hr by disc diffusion method; format: functional
Staphylococcus aureus [29] = assay: Antibacterial activity against Staphylococcus aureus after 18 hr by serial dilution method; format: functional
HeLa [30] = assay: Growth inhibition of Homo sapiens (human) HeLa cells at 50 uM after 48 hr by MTT assay; format: functional; settings: read-out: GI
HeLa [31] = assay: Growth inhibition of Homo sapiens (human) HeLa cells at 12.5 uM after 48 hr by MTT assay; format: functional; settings: read-out: GI
HeLa [32] = assay: Growth inhibition of Homo sapiens (human) HeLa cells at 6.25 uM after 48 hr by MTT assay; format: functional; settings: read-out: GI
HeLa [33] = assay: Growth inhibition of Homo sapiens (human) HeLa cells at 25 uM after 48 hr by MTT assay; format: functional; settings: read-out: GI
HeLa [34] = assay: Cytotoxicity against Homo sapiens (human) HeLa cells after 48 hr by MTT assay; format: functional, cell-based
HeLa [35] = assay: Growth inhibition of Homo sapiens (human) HeLa cells at 100 uM after 48 hr by MTT assay; format: functional; settings: read-out: GI

Compound | MIC (Micrococcus luteus [2]) | diameter of the inhibition zone (DIZ) (Staphylococcus aureus [3]) | diameter of the inhibition zone (DIZ) (Trichophyton rubrum [5]) | diameter of the inhibition zone (DIZ) (Salmonella paratyphi [6]) | MIC (Escherichia coli [9]) | MIC (Salmonella paratyphi [10]) | MIC (Candida albicans [11]) | diameter of the inhibition zone (DIZ) (Pseudomonas aeruginosa [12]) | diameter of the inhibition zone (DIZ) (Monascus purpureus [13]) | MIC (Aspergillus niger [14]) | diameter of the inhibition zone (DIZ) (Micrococcus luteus [16]) | MIC (Monascus purpureus [17]) | diameter of the inhibition zone (DIZ) (Vibrio cholerae [18]) | diameter of the inhibition zone (DIZ) [19] | diameter of the inhibition zone (DIZ) (Escherichia coli [20]) | MIC (Vibrio cholerae [21]) | diameter of the inhibition zone (DIZ) (Bacillus subtilis [22]) | MIC (Pseudomonas aeruginosa [23]) | diameter of the inhibition zone (DIZ) (Candida albicans [24]) | MIC (Trichophyton rubrum [25]) | other results
CN(C)c1ccc(C2C(Cl)C(=O)N2NC(=O)NCC(=O)N2c3ccccc3Sc3ccccc32)cc1 (stereo not given) | 250 µg/mL (≈ 479 µM) | 8 mm | 7 mm | 6 mm | 250 µg/mL (≈ 479 µM) | 250 µg/mL (≈ 479 µM) | 250 µg/mL (≈ 479 µM) | 12 mm | 7 mm | 125 µg/mL (≈ 239 µM) | 5 mm | 250 µg/mL (≈ 479 µM) | 8 mm | 8 mm | 7 mm | 125 µg/mL (≈ 239 µM) | 8 mm | 62.5 µg/mL (≈ 120 µM) | 7 mm | 250 µg/mL (≈ 479 µM) | growth inhibition (GI) [1]: inactive; Activity [4]: Active; EC50 [7]: 55 µg/mL (≈ 105 µM); growth inhibition (GI) [8]: Active; growth inhibition (GI) [15]: inactive; MIC (Bacillus subtilis [26]): 125 µg/mL (≈ 239 µM); MIC [27]: 125 µg/mL (≈ 239 µM); diameter of the inhibition zone (DIZ) (Aspergillus niger [28]): 8 mm; MIC (Staphylococcus aureus [29]): 125 µg/mL (≈ 239 µM)
O=C(NCC(=O)N1c2ccccc2Sc2ccccc21)NN1C(=O)C(Cl)C1c1cccc(F)c1 (stereo not given) | 250 µg/mL (≈ 503 µM) | 7 mm | 7 mm | 10 mm | 250 µg/mL (≈ 503 µM) | 125 µg/mL (≈ 252 µM) | 125 µg/mL (≈ 252 µM) | 11 mm | 10 mm | 250 µg/mL (≈ 503 µM) | 7 mm | 125 µg/mL (≈ 252 µM) | 9 mm | 11 mm | 6 mm | 125 µg/mL (≈ 252 µM) | 11 mm | 125 µg/mL (≈ 252 µM) | 11 mm | 125 µg/mL (≈ 252 µM) | Activity [4]: Active; EC50 [7]: 47 µg/mL (≈ 94.6 µM); MIC (Bacillus subtilis [26]): 62.5 µg/mL (≈ 126 µM); MIC [27]: 125 µg/mL (≈ 252 µM); diameter of the inhibition zone (DIZ) (Aspergillus niger [28]): 7 mm; MIC (Staphylococcus aureus [29]): 250 µg/mL (≈ 503 µM)
O=C(NCC(=O)N1c2ccccc2Sc2ccccc21)NN1C(=O)C(Cl)C1c1ccc(O)cc1 (stereo not given) | 62.5 µg/mL (≈ 126 µM) | 9 mm | 8 mm | 12 mm | 250 µg/mL (≈ 505 µM) | 62.5 µg/mL (≈ 126 µM) | 62.5 µg/mL (≈ 126 µM) | 18 mm | 10 mm | 62.5 µg/mL (≈ 126 µM) | 12 mm | 500 µg/mL (≈ 1010 µM) | 9 mm | 13 mm | 5 mm | 125 µg/mL (≈ 253 µM) | 10 mm | 62.5 µg/mL (≈ 126 µM) | 13 mm | 250 µg/mL (≈ 505 µM) | inhibition of growth at 50 µM (HeLa [30]): 37.4%; inhibition of growth at 12.5 µM (HeLa [31]): 5.04%; inhibition of growth at 6.25 µM (HeLa [32]): 0.123%; inhibition of growth at 25 µM (HeLa [33]): 19.1%; IC50 (HeLa [34]): 84.1 µM; inhibition of growth at 100 µM (HeLa [35]): 53%; MIC (Bacillus subtilis [26]): 125 µg/mL (≈ 253 µM); MIC [27]: 125 µg/mL (≈ 253 µM); diameter of the inhibition zone (DIZ) (Aspergillus niger [28]): 8 mm; MIC (Staphylococcus aureus [29]): 125 µg/mL (≈ 253 µM)
O=C(NCC(=O)N1c2ccccc2Sc2ccccc21)NN1C(=O)C(Cl)C1c1cccc(Cl)c1 (stereo not given) | 250 µg/mL (≈ 487 µM) | 7 mm | 6 mm | 10 mm | 500 µg/mL (≈ 974 µM) | 125 µg/mL (≈ 243 µM) | 62.5 µg/mL (≈ 122 µM) | 10 mm | 7 mm | 250 µg/mL (≈ 487 µM) | 5 mm | 250 µg/mL (≈ 487 µM) | 8 mm | 11 mm | 5 mm | 250 µg/mL (≈ 487 µM) | 11 mm | 125 µg/mL (≈ 243 µM) | 12 mm | 250 µg/mL (≈ 487 µM) | growth inhibition (GI) [1]: inactive; growth inhibition (GI) [8]: Active; growth inhibition (GI) [15]: Active; MIC (Bacillus subtilis [26]): 125 µg/mL (≈ 243 µM); MIC [27]: 125 µg/mL (≈ 243 µM); diameter of the inhibition zone (DIZ) (Aspergillus niger [28]): 7 mm; MIC (Staphylococcus aureus [29]): 250 µg/mL (≈ 487 µM)
CO[C@H]1/C=C/O[C@@]2(C)Oc3c(C)c(O)c4c(O)c(c(/C=N/N5CCN(C)CC5)c(O)c4c3C2=O)NC(=O)/C(C)=C\C=C\[C@H](C)[C@H](O)[C@@H](C)[C@@H](O)[C@@H](C)[C@H](OC(C)=O)[C@@H]1C | – | – | – | – | – | – | – | – | – | – | – | – | – | – | – | – | – | – | – | – | growth inhibition (GI) [1]: Active; growth inhibition (GI) [15]: Active
O=C(NCC(=O)N1c2ccccc2Sc2ccccc21)NN1C(=O)C(Cl)C1c1ccccc1Cl (stereo not given) | 250 µg/mL (≈ 487 µM) | 4 mm | 10 mm | 12 mm | 250 µg/mL (≈ 487 µM) | 125 µg/mL (≈ 243 µM) | 62.5 µg/mL (≈ 122 µM) | 7 mm | 10 mm | 125 µg/mL (≈ 243 µM) | 7 mm | 125 µg/mL (≈ 243 µM) | 6 mm | 5 mm | 8 mm | 250 µg/mL (≈ 487 µM) | 7 mm | 250 µg/mL (≈ 487 µM) | 12 mm | 125 µg/mL (≈ 243 µM) | Activity [4]: Active; EC50 [7]: 57 µg/mL (≈ 111 µM); MIC (Bacillus subtilis [26]): 250 µg/mL (≈ 487 µM); MIC [27]: 250 µg/mL (≈ 487 µM); diameter of the inhibition zone (DIZ) (Aspergillus niger [28]): 8 mm; MIC (Staphylococcus aureus [29]): 500 µg/mL (≈ 974 µM)
